Experimental data from US12427200B2 (priority 2019, dated 2025).
Where “and” joins values, the source holds several entries; their conditions need not be identical. Equal entries are not always repeated. Where two headings read alike, the source gives them in different places.

Assays:
[1] = target: neuraminidase of influenza B viruses (Influenza B virus, UniProt A0A1X9RX69); format: biochemical
[2] = target: neuraminidase of live influenza A (H1N1) viruses (Influenza A virus, UniProt C3W6G3); test: biochemical; format: biochemical
[3] = target: neuraminidase of live influenza A (H1N1) viruses (Influenza A virus, UniProt P03468); test: biochemical; format: biochemical
[4] = tested on: A/Hong Kong/156/1997 (H5N1, clade 0); format: cell-based, Influenza A virus
[5] = tested on: H7N9 isolate (high path influenza A); format: cell-based, Influenza A virus
INFV B (B/Brisbane) = test: microbe, parasite or virus in culture; format: cell-based, Influenza B virus; conditions: read-out: EC50 vs INFV B
[6] = tested on: influenza A/CA/07/2009 (H1N1) pdm; format: cell-based, Influenza A virus
A/CA/12/12 (H1N1) = tested on: A/CA/12/12 (H1N1); set-up: species or system BALB/c mice; conditions: mouse, in vivo
influenza A/PR/8/1934 = tested on: influenza A/PR/8/1934; set-up: species or system BALB/c mice; conditions: mouse, in vivo; for Log reduction PFU/g / Viral burden PFU/g: po
[7] = tested on: neuraminidase of influenza B viruses; format: biochemical; conditions: read-out: neuraminidase inhibition (median IC50)
[8] = tested on: A/turkey/Turkey/1/2005 (H5N1, clade 2.2); format: cell-based, Influenza A virus
lung cytokines [9] = tested on: lung cytokines; set-up: species or system BALB/c mice; conditions: mouse, in vivo, po, 5 mg/kg
[10] = tested on: A/Netherlands/602/2009 (H1N1); format: cell-based, Influenza A virus
[11] = tested on: H3N2 WT (A/Washington/12/2007); format: cell-based, Influenza A virus
[12] = tested on: H5N1 isolates (high path influenza A); format: cell-based, Influenza A virus
INFV A (A/CA/09 H1N1) = test: microbe, parasite or virus in culture; format: cell-based, Influenza A virus; conditions: read-out: EC50 vs INFV A
influenza B = format: cell-based, Influenza B virus
[13] = tested on: INF-γ, TNF-α, IL-6, MIP-1α, MCP-1 in lung homogenate; set-up: species or system BALB/c mice; conditions: mouse, in vivo
lung cytokines [14] = tested on: lung cytokines; set-up: species or system BALB/c mice; conditions: mouse, in vivo, po
A/Texas/36/91 (H1N1) [15] = conditions: mouse, in vivo
[16] = tested on: A/Puerto Rico/8/1934 (H1N1); set-up: species or system BALB/c mice; conditions: mouse, in vivo
[17] = tested on: A/Puerto Rico/08/1934 (H1N1), PR8; format: in vivo, mouse; conditions: 10 days
A/Anhui/01/2013 (H7N9) = format: cell-based, Influenza A virus
[18] = tested on: A/Vietnam/1203/2004 (H5N1); set-up: species or system BALB/c mice; conditions: mouse, in vivo
influenza A H1N1 strains = tested on: influenza A H1N1 strains; set-up: species or system Influenza A virus; conditions: read-out: cell-based cytopathic effect assay (median EC50)
A/PR/8/34 (H1N1) = tested on: A/PR/8/34 (H1N1); set-up: species or system BALB/c mice; conditions: mouse, in vivo
[19] = tested on: A/Puerto Rico/8/1934 (H1N1); conditions: mouse, in vivo
[20] = tested on: influenza A/Puerto Rico/8/1934 (H1N1); set-up: species or system BALB/c mice; conditions: mouse, in vivo
A/Texas/36/91 (H1N1) [21] = tested on: A/Texas/36/91 (H1N1); set-up: species or system BALB/c mice; conditions: mouse, in vivo
[22] = tested on: influenza A/Ca/07/2009 (H1N1)pdm; format: cell-based, Influenza A virus
influenza A H3N2 strains = tested on: influenza A H3N2 strains; set-up: species or system Influenza A virus; conditions: read-out: cell-based cytopathic effect assay (median EC50)
[23] = tested on: A/Indonesia/5/2005 (H5N1, clade 2.1); format: cell-based, Influenza A virus
influenza A/CA/07/2009 = tested on: influenza A/CA/07/2009; set-up: species or system BALB/c mice; conditions: mouse, in vivo, po, 5 mg/kg
[24] = tested on: neuraminidase of live influenza A (H1N1) viruses; test: biochemical; format: biochemical, Influenza A virus; conditions: read-out: neuraminidase inhibition (median IC50)
B/Brisbane/60/2008 = tested on: B/Brisbane/60/2008; set-up: species or system BALB/c mice; conditions: mouse, in vivo
[25] = tested on: neuraminidase of live influenza A (H3N2) viruses; test: biochemical; set-up: species or system Influenza A virus; conditions: read-out: neuraminidase inhibition (median IC50)
B (B/Malaysia/2506/2004) = format: cell-based, Influenza B virus
influenza B strains = tested on: influenza B strains; set-up: species or system Influenza B virus; conditions: read-out: cell-based cytopathic effect assay (median EC50)
[26] = tested on: H1N1 WT (A/California/12/2012); format: cell-based, Influenza A virus
H3N2 A/Hong Kong/1/68 = format: in vivo, mouse; conditions: 15 days
influenza A/WSN/1933 = format: cell-based, Influenza A virus
[27] = tested on: Influenza B/Brisbane/60/2008; test: microbe, parasite or virus in culture; conditions: MDCK, read-out: EC50, B/Brisbane/60/2008 (Victoria lineage)
[28] = tested on: Influenza B/Florida/4/2006; test: microbe, parasite or virus in culture; conditions: MDCK
[29] = tested on: Influenza A/Anhui/1/2013 (H7N9); test: microbe, parasite or virus in culture; conditions: H7N9, MDCK
[30] = read-out: IC50 for viral replication
[31] = read-out: microneutralization (IC50)

Q: `C#CCOCCOCCOCCOCCN(CCOCCN(C)C(=O)O[C@@H]([C@@H]1OC(C(=O)O)=C[C@H](NC(=N)N)[C@H]1NC(C)=O)[C@H](O)CO)CCOCCN(C)C(=O)O[C@@H]([C@@H]1OC(C(=O)O)=C[C@H](NC(=N)N)[C@H]1NC(C)=O)[C@H](O)CO` [Int-83] was tested. Which IC50 [1] did it give?
A: 125 nM

Q: And the IC50 [2]?
A: 28.6 nM

Q: And the IC50 [3]?
A: 4.23 nM

Q: Which results are given for `CCOC(=O)C1=C[C@@H](OC(CC)CC)[C@H](NC(C)=O)[C@@H](N)C1` [Oseltamivir, oseltamivir]?
A: EC100 (CPE in MDCK cells) [4]: >1000 nM; IC50 [5, 30]: ≥ 300 nM; IC50 [5, 31]: > 300 nM; EC50 (INFV B (B/Brisbane)): 1060 nM; EC50 [6]: 18.5 nM and 34.2 nM; Protection from lethal challenge (A/CA/12/12 (H1N1)): unprotective; Survival (A/CA/12/12 (H1N1)): 40%; Viral load reduction (influenza A/PR/8/1934): ca. 0.8 log; Log reduction PFU/g (influenza A/PR/8/1934; 5 mg/kg): 0.83; Viral burden PFU/g (influenza A/PR/8/1934; 5 mg/kg): 2.86E+06 PFU/g; Log reduction PFU/g (influenza A/PR/8/1934; 50 mg/kg): 0.86; Viral burden PFU/g (influenza A/PR/8/1934; 50 mg/kg): 2.66E+06 PFU/g; IC50 [7]: […]; EC100 (CPE in MDCK cells) [8]: ~125 to 250 nM; IL-6 (lung cytokines [9]): 714.2 pg/mL; EC100 (CPE in MDCK cells) [10]: ~1000 nM; IC50 [10, 30]: ≥ 300 nM; IC50 [10, 31]: > 300 nM; EC50 [11]: 29.6 nM; IC50 [12, 30]: ≥ 300 nM and 169 nM; IC50 [12, 31]: 169 nM and > 300 nM; EC50 (INFV A (A/CA/09 H1N1)): 390 nM; EC50 (influenza B; read-out: CPE against influenza B, EC50, B/Brisbane): 969 nM; EC50 (influenza B; read-out: CPE against influenza B, EC50, B/Florida): > 10000 nM; EC50 (influenza B; read-out: CPE against influenza B, EC50, B/Malaysia): 5690 nM; IL-6 lung cytokine level [13]: 1.8 and 1.4; INF-γ lung cytokine level [13]: 1.0 and 0.8; MCP-1 lung cytokine level [13]: 24.0 and 16.2; MIP-1a lung cytokine level [13]: 6.3 and 4.0; TNF-α lung cytokine level [13]: 0.8; IL-6 (lung cytokines [14]; 5 mg/kg): 714.2 pg/mL; MCP-1 (lung cytokines [14]; 5 mg/kg): 5301.6 pg/mL; KC (lung cytokines [14]; 50 mg/kg): 2705.5 pg/mL; MCP-1 (lung cytokines [14]; 50 mg/kg): 4572.8 pg/mL; MIP-1α (lung cytokines [14]; 50 mg/kg): 948.2 pg/mL; TNF-α (lung cytokines [14]; 50 mg/kg): 501.7 pg/mL; % Survival (Day 14) (A/Texas/36/91 (H1N1) [15]): 100%; Survival [16]: 0%; Survival ([16]; 200 mg/kg): 40%; % Survival [17]: 20%; EC100 (CPE in MDCK cells) (A/Anhui/01/2013 (H7N9)): ~500 to 1000 nM; Protection [18]: 90%; EC50 (influenza A H1N1 strains): 2410 nM; Day until which death was delayed (A/PR/8/34 (H1N1)): 10 days; Survival (A/PR/8/34 (H1N1)): 0%; Survival / protection (A/PR/8/34 (H1N1)): 80%; day by which mice reached mortality [19]: ≤ 8 days; loss of body weight [19]: 14%; protection (survival) [19]: fully protected; Log reduction (PFU/mL) [20]: 0.24 Log and 0.52 Log; Protection (A/Texas/36/91 (H1N1) [21]): no protection; Survival (A/Texas/36/91 (H1N1) [21]): 40%; Survival (A/Texas/36/91 (H1N1) [21]; 200 mg/kg): 80%; EC50 ([22]; read-out: EC50, MOI 0.1): > 10000 nM; EC50 ([22]; read-out: EC50, MOI 1): > 10000 nM; EC50 (influenza A H3N2 strains): 8180 nM; EC100 (CPE in MDCK cells) [23]: ~200 to 500 nM; Log reduction PFU/g (influenza A/CA/07/2009): −0.08; Viral burden PFU/g (influenza A/CA/07/2009): 2.05E+07 PFU/g; IC50 [24]: […]; Survival (B/Brisbane/60/2008): 40%; IC50 [25]: […]; EC50 (B (B/Malaysia/2506/2004)): 22.1 nM; EC50 (influenza B strains): 758 nM; EC50 [26]: > 100 nM; % Survival (H3N2 A/Hong Kong/1/68): 80%; EC50 (influenza A/WSN/1933; read-out: EC50, MOI 0.001): 3910 nM; EC50 (influenza A/WSN/1933; read-out: EC50, MOI 0.01): > 10000 nM; EC50 (influenza A/WSN/1933; read-out: EC50, MOI 0.1): > 10000 nM; EC50 (influenza A/WSN/1933; read-out: EC50, MOI 1): > 10000 nM; EC50 (influenza A/WSN/1933; read-out: EC50, MOI 10): > 10000 nM

Q: For `NC(=O)c1ncn([C@@H]2O[C@H](CO)[C@@H](O)[C@H]2O)n1` [ribavirin], which EC50 [27] is on record?
A: 3300 nM

Q: And the EC50 [28]?
A: 3250 nM

Q: What about the EC50 ([28]; read-out: EC50, B/Florida/4/2006 (Yamagata lineage)) of the same compound?
A: 3250 nM

Q: What about the EC50 [29] of the same compound?
A: 14000 nM

Q: What about the EC50 ([29]; read-out: EC50, A/Anhui/1/2013 (H7N9) (zoonotic avian)) of the same compound?
A: 14000 nM
